Read-outs that look alike come from different tables or passages of the source.
Columns and labels:
A549 cells = test: Anti-proliferative assay, standard CCK-8 method; assay type: cell-based, human; conditions: mean ± SD of at least three independent experiments, read-out: Proliferative inhibition (IC50, μM) A549
Text: (§1) All reagents and solvents met the criteria of analytical reagents before use. All cancer cell lines (A549, human non-small-cell lung cell line; HT-29, human colonic adenocarcinoma cell line; MCF-7, human breast cancer cell line) were purchased from Stem Cell Bank, Chinese Academy of Sciences. […] ADP-Glo™ kinase assay kits were provided by Promega (Beijing) Biotech Co., Ltd. (Beijing, China). All kinase subtypes were supplied by SignalChem (BC, Canada).
(§2) The designed 4-anilinoquinazoline derivatives were evaluated for their antitumor bioactivities in vitro against three human tumor cell lines (A549, HT-29, and MCF-7) using the standard CCK-8 method. The CCK-8 method is based on WST-8 dye, 2-(2-methoxy-4-nitrophenyl)-3-(4-nitrophenyl)-5-(2,4-disulfophenyl)-2H-tetrazolium. WST-8 can be bio-reduced by dehydrogenases in mitochondria into orange water-soluble formazan products. Briefly, selected cancer cells in the logarithmic growth phase (1 × 10^4) were inoculated in 96-well plates and further cultured in the incubator for 24 h. First, the target compounds were diluted to different concentrations with culture medium with each dilution gradually diluted from the highest concentration solution. Second, the original culture medium was removed after the cells were completely adherent to the wall, and the compounds at various concentrations prepared above were added. In this experiment, a control group and a blank group were set: the former was treated with 0.1% DMSO solution, and the latter was treated with only the culture medium. […] A microplate reader was adopted to record the absorbance at 450 nm, and in this assay, gefitinib, erlotinib, and sorafenib were used as the reference drugs.

HT-29 cells = test: Anti-proliferative assay, standard CCK-8 method; assay type: cell-based, human; conditions: mean ± SD of at least three independent experiments, read-out: Proliferative inhibition (IC50, μM) HT-29
Text: as §1, §2

MCF-7 cells = test: Anti-proliferative assay, standard CCK-8 method; assay type: cell-based, human; conditions: read-out: Proliferative inhibition (IC50, μM) MCF-7
Text: as §1, §2

EGFR = target: T1, EGFR (Homo sapiens, UniProt P00533); test: EGFR kinase inhibition, ADP-Glo assay; assay type: biochemical; conditions: ADP-Glo; mean ± SD of at least two independent experiments; read-out: Enzymatic inhibition IC50 (nM) EGFR
T1 construct: 2 μl (50 ng/ml) of EGFR kinase
Protocol: The EGFR kinase inhibition activities of the target compounds were evaluated by the ADP-Glo™ assay. The ADP-Glo™ kinase detection kit is a luminescence kinase detection approach that detects the amount of ADP produced by the kinase reaction. After ADP is converted into ATP, ATP can be used as the substrate of the luciferase-catalyzed reaction to generate an optical signal, which is positively correlated with kinase activity. […] The above-prepared systems were sealed and incubated at room temperature for 2 h, and 5 μl of ADP-GLO was added to terminate the kinase reaction. Then, the culture plate was sealed and incubated in a thermostatic oscillator for 40 min to fully consume the remaining ATP. The luciferase/luciferin reaction was adopted to determine the newly generated ATP level.

[1] = test system: A549, HT-29, and MCF-7 cells; test: Anti-proliferative assay, CCK-8, summaries over all three cell lines; assay type: cell-based; conditions: Homo sapiens, span over A549, HT-29 and MCF-7 cells, read-out: IC50 against the selected cell lines
Text: as §1, §2

[2] = Homo sapiens, MCF7, mean ± SD of at least three independent experiments
[3] = mean ± SD of at least three independent experiments

Compound	IC50 (A549 cells; Homo sapiens) [µM]	IC50 (HT-29 cells; Homo sapiens) [µM]	IC50 (MCF-7 cells; [2]) [µM]	IC50 (EGFR) [nM]	melting point [°C]	IC50 (A549 cells) [µM]	IC50 (HT-29 cells) [µM]	IC50 (MCF-7 cells; [3]) [µM]	IC50 [1] [µM]
O=C(Nc1ccccc1)Nc1ccc2ncnc(Nc3ccc(F)cc3)c2c1 [Compound 7f]	> 50	48.3 ± 0.78	44.3 ± 1.12	11.7 ± 0.79	252.8 to 253.5				
Cc1ccc(NC2NC=Nc3ccc(NC(=O)Nc4ccc(Cl)c(C(F)(F)F)c4)cc32)cc1 (stereo not drawn) [Compound 7m, 1-(4-chloro-3-(trifluoromethyl)phenyl)-3-(4-(p-tolylamino)-3,4-dihydroquina-zolin-6-yl) urea]						5.6 ± 0.31	2.61 ± 1.25	5.53 ± 0.39	
Cc1ccc(Nc2ncnc3ccc(NC(=O)Nc4ccc(F)cc4)cc23)cc1 [Compound 7o]	35.3 ± 0.57	7.83 ± 0.97	33.7 ± 10.1	123.9 ± 1.09	247.2 to 248.4				
O=C(Nc1ccccc1)Nc1ccc2ncnc(Nc3cccc(Br)c3)c2c1 [Compound 7a]	5.81 ± 0.84	4.66 ± 0.56	15.9 ± 2.28		250 to 250.9				
CNC(=O)c1cc(Oc2ccc(NC(=O)Nc3ccc(Cl)c(C(F)(F)F)c3)cc2)ccn1 [Sorafenib, sorafenib, reference compound]	1.84 ± 0.17	2.27 ± 0.43	3.47 ± 0.39						1.84 to 23.2
COc1ccc(NC(=O)Nc2ccc3ncnc(Nc4ccc(Br)cc4)c3c2)cc1 [Compound 7q]	5.21 ± 0.3	36.96 ± 0.17	17.9 ± 0.89	470.4 ± 1.28	267.1 to 268.2				
COc1ccc(NC(=O)Nc2ccc3ncnc(Nc4ccc(F)cc4)c3c2)cc1 [Compound 7r]	> 50	48.21 ± 0.23	46.1 ± 1.98	59.7 ± 1.31	250.2 to 251.8				
COc1ccc(NC(=O)Nc2ccc3ncnc(Nc4ccc(C)cc4)c3c2)cc1 [Compound 7s]	> 50	46.2 ± 0.57	47.6 ± 0.76	108 ± 2.64	259.5 to 260.1				
1-(4-chloro-3-(trifluoromethyl) phenyl)-3-(4-((2,3-dimethylphenyl) amino)-3,4-dihydroquinazolin-6-yl) urea [Compound 7t]				728.1 ± 1.65		> 50	48.3 ± 1.9	> 50	
1-(4-chloro-3-(trifluoromethyl) phenyl)-3-(4-((2,3-dimethylphenyl) amino)-3,4-dihydroquinazolin-6-yl) urea [Compound 7n]						2.67 ± 0.76	2.67 ± 1.02	3.11 ± 0.3	
C#Cc1cccc(Nc2ncnc3cc(OCCOC)c(OCCOC)cc23)c1 [Erlotinib, erlotinib, reference compound]	23.2 ± 0.51	22.8 ± 1.12	11.4 ± 0.43						1.84 to 23.2

Now from value to compound, other results behind:

IC50 (A549 cells; Homo sapiens) [µM]	IC50 (HT-29 cells; Homo sapiens) [µM]	IC50 (MCF-7 cells; [2]) [µM]	IC50 (EGFR) [nM]	melting point [°C]	IC50 (A549 cells) [µM]	IC50 (HT-29 cells) [µM]	IC50 (MCF-7 cells; [3]) [µM]	Compound	IC50 [1] [µM]
6.16 ± 0.45	5.92 ± 1.04	8.57 ± 0.27	20.1 ± 2.21	256 to 256.8				O=C(Nc1ccccc1)Nc1ccc2ncnc(Nc3ccc(Br)cc3F)c2c1 [Compound 7c]	
2.79 ± 0.44	2.3 ± 0.5	3.54 ± 0.07		269.8 to 271.1				O=C(Nc1ccc(Cl)c(C(F)(F)F)c1)Nc1ccc2ncnc(Nc3ccc(Br)cc3)c2c1 [Compound 7k]	
38.65 ± 0.21	39.2 ± 2.01	44.2 ± 0.97	11.8 ± 0.36	233 to 233.7				O=C(Nc1ccccc1)Nc1ccc2ncnc(Nc3ccc(F)c(Cl)c3)c2c1 [Compound 7d]	
9.34 ± 0.73	11.1 ± 0.39	40.2 ± 2.13	58.1 ± 1.99	241.1 to 242.7				COc1ccc(NC(=O)Nc2ccc3ncnc(Nc4cccc(C)c4C)c3c2)cc1 [Compound 7p]	
> 50	> 50	> 50	19.7 ± 1.87	242.8 to 243.7				Cc1cccc(Nc2ncnc3ccc(NC(=O)Nc4ccccc4)cc23)c1C [Compound 7h]	> 50
